# Assay results: paper PMC11267547, “Advancing drug discovery through assay development: a survey of tool compounds within the human solute carrier superfamily” (Frontiers in Pharmacology, 2024)
# Where two headings read alike, the source gives them in different places.
# What was measured:
# Assay type in all cases: cell-based
# SLC23A1 = biological target: T1, SLC23A1 (Homo sapiens, UniProt Q9UHI7); assay: RESOLUTE assay on SLC23A1
# T1 construct: expressed in transfected cells; host or cells: Jump In T-REx HEK293 (general cell-line paragraph)
# T1 sequence (Q9UHI7 whole entry): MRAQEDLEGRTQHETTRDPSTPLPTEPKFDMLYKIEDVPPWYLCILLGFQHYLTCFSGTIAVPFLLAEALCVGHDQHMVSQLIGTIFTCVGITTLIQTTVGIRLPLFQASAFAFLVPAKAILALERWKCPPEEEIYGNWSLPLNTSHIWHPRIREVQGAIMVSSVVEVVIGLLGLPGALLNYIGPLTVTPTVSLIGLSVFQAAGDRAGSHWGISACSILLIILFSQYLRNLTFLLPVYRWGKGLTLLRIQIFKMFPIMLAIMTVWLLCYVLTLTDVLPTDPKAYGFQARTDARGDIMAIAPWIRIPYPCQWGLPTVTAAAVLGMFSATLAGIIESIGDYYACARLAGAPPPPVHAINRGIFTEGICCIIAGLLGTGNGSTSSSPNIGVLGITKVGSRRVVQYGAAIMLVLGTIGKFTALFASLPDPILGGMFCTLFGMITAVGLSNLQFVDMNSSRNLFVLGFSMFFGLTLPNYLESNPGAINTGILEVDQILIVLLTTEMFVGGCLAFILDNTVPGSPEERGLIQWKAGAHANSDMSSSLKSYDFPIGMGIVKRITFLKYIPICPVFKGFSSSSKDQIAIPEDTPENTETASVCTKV
# Method: (§1) FLIPR Membrane Potential Blue Dye was used to detect the compound activities for those membrane transporters that are electrogenic or whose activity is associated with changes in membrane potential, as previously described ([Jensen and BräunerOsborne, 2004]). In brief, cells are seeded at cell line-specific density in black clear-bottom poly-D-Lysine-coated 384-well plates (Greiner Bio-One) in DMEM high-glucose medium with 10% FBS, 1% P/S, and 2 mM UltraGlutamine I (25 µL/well). Furthermore, 24 h after seeding, the culture medium is removed, and the cells are loaded with 20 µL/well of 0.5 X FMP Blue Dye in assay buffer (modified Tyrode’s buffer, 130 mM NaCl, 5 mM KCl, 1 mM MgCl2, 2 mM CaCl2, 5 mM NaHCO3, and 20 mM HEPES pH 7.4). The plates are subsequently incubated for at least 30 min at room temperature in the dark. Then, 10 µL/well of test compounds and controls is added at defined concentrations (0.5% DMSO final conc.) in the FLIPR TETRA instrument (Molecular Devices), and emitted fluorescence is recorded using a λexc 510–545-nm/λem 565–625-nm filter. The dose–response curves for the 19 compounds were prepared starting from 3 µM (final top concentration), the half-log serial dilution factor. For data analysis, Genedata Screener 19.0 software was used.
# (§2) The robust Z prime factor (RZ’ factor) was calculated with the following formula: RZ^′=1−3∗RSDMAX+RSDMIN/AbsMAX − MIN, where the RZ’ factor is based on the same formula as the Z′ factor ([Zhang et al., 1999]) but standard deviations and means are replaced by the robust standard deviations and medians, respectively. Curve fitting profiles were performed on each dose–response curve with the analyzer module of Genedata Screener 19.0 on % activity.
# SLC6A2 = SLC6A2 (Homo sapiens, UniProt P23975); assay: Impedance-based TRACT assay, HEK293–JumpIn–NET (SLC6A2) cells; parameters: expressed in transfected cells; host or cells: Jump In T-REx HEK293
# Chain of SLC6A2 (P23975 whole entry): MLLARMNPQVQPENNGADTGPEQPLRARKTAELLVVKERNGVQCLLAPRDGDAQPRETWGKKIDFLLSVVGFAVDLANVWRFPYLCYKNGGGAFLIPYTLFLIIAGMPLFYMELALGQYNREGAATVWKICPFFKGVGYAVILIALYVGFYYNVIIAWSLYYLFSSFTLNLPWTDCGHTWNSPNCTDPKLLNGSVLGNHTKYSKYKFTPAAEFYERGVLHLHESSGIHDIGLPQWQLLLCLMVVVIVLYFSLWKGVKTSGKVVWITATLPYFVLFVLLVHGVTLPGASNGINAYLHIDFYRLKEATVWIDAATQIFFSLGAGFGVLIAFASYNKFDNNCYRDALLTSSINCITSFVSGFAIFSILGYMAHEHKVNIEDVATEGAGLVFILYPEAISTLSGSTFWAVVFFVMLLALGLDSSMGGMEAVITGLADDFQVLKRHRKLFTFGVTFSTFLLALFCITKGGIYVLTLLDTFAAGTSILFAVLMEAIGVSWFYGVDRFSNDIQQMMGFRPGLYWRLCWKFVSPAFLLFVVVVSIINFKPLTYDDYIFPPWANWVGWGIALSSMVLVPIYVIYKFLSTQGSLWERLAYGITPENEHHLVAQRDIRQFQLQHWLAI
# NHE1 (SLC9A1) = biological target: T2, NHE1 (SLC9A1) (Homo sapiens, UniProt P19634); assay: BCECF-AM pH recovery assay, MDA-MB-468 breast cancer cells
# T2 construct: endogenous in cells; host or cells: MDA-MB-468
# T2 sequence (P19634 whole entry): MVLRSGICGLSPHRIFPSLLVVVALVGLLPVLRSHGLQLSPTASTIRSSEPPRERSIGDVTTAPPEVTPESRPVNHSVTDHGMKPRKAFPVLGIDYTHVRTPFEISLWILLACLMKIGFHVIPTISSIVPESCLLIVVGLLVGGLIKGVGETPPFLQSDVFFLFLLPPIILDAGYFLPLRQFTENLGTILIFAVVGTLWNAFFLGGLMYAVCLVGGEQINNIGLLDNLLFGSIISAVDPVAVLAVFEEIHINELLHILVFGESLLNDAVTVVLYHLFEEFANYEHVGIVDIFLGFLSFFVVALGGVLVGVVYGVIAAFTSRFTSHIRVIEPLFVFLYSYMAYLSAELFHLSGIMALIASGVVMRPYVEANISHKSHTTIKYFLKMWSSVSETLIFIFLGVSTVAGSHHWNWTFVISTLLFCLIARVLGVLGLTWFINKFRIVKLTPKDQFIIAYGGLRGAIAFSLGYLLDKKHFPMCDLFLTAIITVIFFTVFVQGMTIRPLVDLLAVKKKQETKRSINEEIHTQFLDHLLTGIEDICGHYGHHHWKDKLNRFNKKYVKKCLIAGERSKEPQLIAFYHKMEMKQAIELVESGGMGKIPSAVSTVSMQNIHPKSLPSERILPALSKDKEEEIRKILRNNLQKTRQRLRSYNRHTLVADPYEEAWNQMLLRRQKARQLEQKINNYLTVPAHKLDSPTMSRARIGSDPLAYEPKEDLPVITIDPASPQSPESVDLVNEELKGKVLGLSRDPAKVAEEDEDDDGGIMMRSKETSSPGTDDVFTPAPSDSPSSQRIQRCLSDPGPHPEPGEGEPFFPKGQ
# Method: The cells were seeded (6.000 cells/well) in poly-d-lysine-coated 384-well plates (black, transparent bottom) and grown for 24 h at 37°C and 5% CO2. The media was removed, and the cells were washed once in sodium-free loading buffer (115 mM choline chloride, 20 mM NH4Cl, 5 mM KCl, 1 mM CaCl2, 1 mM MgCl2, 20 mM HEPES pH 7.4, and 5 mM glucose) and subsequently incubated for 30–45 min at 37°C in a loading buffer containing 10 µM 2′,7′-Bis(2-carboxyethyl)-5(6)-carboxyfluorescein tetrakis (acetoxymethyl) ester (BCECF-AM). The loading buffer was removed, and the cells were washed twice with NH4Cl-free acidification buffer (133.8 mM choline chloride, 4.7 mM KCl, 1.25 mM CaCl2, 1.25 mM MgCl2, 0.97 mM K2HPO4, 0.23 mM KH2PO4, 5 mM HEPES pH 7.4, and 5 mM glucose) using a plate dispenser (Multidrop Combi+, Thermo Fisher Scientific, US). The cells were incubated 5 min with 15 µL compounds at 2× concentration in acidification buffer. The assay readout was acquired using a plate reader (POLARstar Omega, BMG LABTECH, Germany) set to measure Ex./Em. at 440 nm/520 nm and 485 nm/520 nm over a period of 15 min. A baseline read was recorded before the plate readers automated dispensing of 15 µL recovery buffer (133.8 mM NaCl, 4.7 mM KCl, 1.25 mM CaCl2, 1.25 mM MgCl2, 0.97 mM Na2HPO4, 0.23 mM NaH2PO4, 5 mM HEPES pH 7.4, and 5 mM glucose), which initializes cellular pH recovery. The mean baseline measurement was subtracted from the intensities of each well, and a fluorescence intensity ratio for excitations at 485 nm and 440 nm was calculated. The data were normalized to DMSO (maximum) and no recovery controls (minimum). The data were analyzed using R, and the dr4pl package was used to fit dose–response data to the four-parameter logistic model.
# SLC22A3 (OCT3) = biological target: T3, SLC22A3 (OCT3) (Homo sapiens, UniProt O75751); assay: Impedance-based MPP+ transport assay, HEK293–JumpIn–OCT3 cells
# T3 construct: expressed in transfected cells; host or cells: Jump In T-REx HEK293
# T3 sequence (O75751 1-556): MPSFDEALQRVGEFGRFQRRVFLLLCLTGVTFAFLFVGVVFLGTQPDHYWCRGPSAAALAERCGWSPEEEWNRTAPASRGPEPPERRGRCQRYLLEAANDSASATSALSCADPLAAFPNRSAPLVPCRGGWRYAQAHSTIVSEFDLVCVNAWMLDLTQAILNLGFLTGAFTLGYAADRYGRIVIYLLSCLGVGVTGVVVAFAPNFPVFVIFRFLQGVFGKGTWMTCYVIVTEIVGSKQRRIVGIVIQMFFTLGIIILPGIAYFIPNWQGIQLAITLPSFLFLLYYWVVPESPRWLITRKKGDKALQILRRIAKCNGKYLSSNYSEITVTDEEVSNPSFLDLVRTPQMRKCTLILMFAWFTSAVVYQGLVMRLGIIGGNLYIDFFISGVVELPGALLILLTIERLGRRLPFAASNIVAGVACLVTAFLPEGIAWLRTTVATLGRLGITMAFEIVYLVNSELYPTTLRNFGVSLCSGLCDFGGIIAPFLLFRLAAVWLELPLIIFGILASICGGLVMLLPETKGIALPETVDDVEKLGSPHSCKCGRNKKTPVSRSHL
# SLC7A3 = biological target: T4, SLC7A3 (Homo sapiens, UniProt Q8WY07); assay: RESOLUTE assay on SLC7A3
# T4 construct: expressed in transfected cells; host or cells: Jump In T-REx HEK293 (general cell-line paragraph)
# T4 sequence (Q8WY07 whole entry): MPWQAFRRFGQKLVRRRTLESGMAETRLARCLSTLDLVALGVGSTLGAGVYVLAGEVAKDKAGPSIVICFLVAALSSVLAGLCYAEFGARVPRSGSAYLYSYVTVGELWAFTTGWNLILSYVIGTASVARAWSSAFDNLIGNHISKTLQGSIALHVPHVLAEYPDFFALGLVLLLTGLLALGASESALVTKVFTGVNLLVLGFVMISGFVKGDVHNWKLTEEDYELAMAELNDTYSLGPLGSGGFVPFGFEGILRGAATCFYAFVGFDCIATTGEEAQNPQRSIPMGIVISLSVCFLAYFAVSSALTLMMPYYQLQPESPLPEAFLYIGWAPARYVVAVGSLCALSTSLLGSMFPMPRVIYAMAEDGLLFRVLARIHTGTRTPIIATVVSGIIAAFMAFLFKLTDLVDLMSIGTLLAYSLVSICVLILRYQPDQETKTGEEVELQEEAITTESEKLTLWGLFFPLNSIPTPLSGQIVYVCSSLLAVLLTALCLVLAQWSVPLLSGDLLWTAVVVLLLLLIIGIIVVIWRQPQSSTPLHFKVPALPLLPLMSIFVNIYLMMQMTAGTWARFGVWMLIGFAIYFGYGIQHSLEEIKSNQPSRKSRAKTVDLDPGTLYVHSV
# Method: as §1, §2
# [1] = Flipr Membrane Potential-Blue-Dye, read-out: pIC50 (act), SLC23A1 (converted)
# [2] = target SLC6A2, assay TRACT, read-out: pIC50 (act) (converted)
# [3] = BCECF, read-out: pIC50 (act), SLC9A1 (converted)
# [4] = phenotypic, read-out: pIC50 (act), SLC22A3 (converted)
# [5] = Flipr Membrane Potential-Blue-Dye, read-out: pIC50 (act), SLC7A3 (converted)
# [6] = target SLC7A3, Flipr Membrane Potential-Blue-Dye, read-out: pIC50 (act) (converted)
"IC50 (SLC6A2; approximate value stated in text, read-out: IC50, SLC6A2)","IC50 (SLC6A2; dox-induced HEK293–JumpIn–SLC6A2 cells, 1 µM norepinephrine, read-out: pIC50, SLC6A2, TRACT (converted))",SMILES,IC50 (SLC23A1; [1]),IC50 (SLC6A2; [2]),IC50 (NHE1 (SLC9A1); [3]),IC50 (SLC22A3 (OCT3); [4]),IC50 (SLC7A3; [5]),IC50 (SLC7A3; [6]),IC50 (SLC23A1),IC50 (SLC6A2),IC50 (NHE1 (SLC9A1)),IC50 (SLC22A3 (OCT3)),IC50 (SLC7A3)
–,–,Cc1ccsc1C(=CCCN1CCC[C@@H](C(=O)O)C1)c1sccc1C [Tiagabine],> 3.16 µM,> 10 µM,> 10 µM,> 10 µM,> 3.16 µM,–,–,–,–,–,–
–,–,CCOC(=O)N1CCC(=C2c3ccc(Cl)cc3CCc3cccnc32)CC1 [Loratadine],> 3.16 µM,–,> 10 µM,> 10 µM,–,> 3.16 µM,–,–,–,–,–
–,–,COCCOc1cc(CC2CCN(CCc3ccc4c(c3)C(=O)CCO4)CC2)ccc1Br [DSP-1053],> 3.16 µM,> 10 µM,> 10 µM,> 10 µM,–,> 3.16 µM,–,–,–,–,–
–,–,"NC(C(=O)O)C(OCc1ccccc1)C(=O)O (stereo not drawn) [Threo-beta-benzyloxyaspartic acid, Threo-beta-Benzyloxyaspartic acid]",> 3.16 µM,> 10 µM,> 10 µM,> 10 µM,> 3.16 µM,–,–,–,–,–,–
–,–,CCNC(=O)/C=C/c1cccc(Br)c1 [Cinromide],> 3.16 µM,> 10 µM,> 10 µM,> 10 µM,–,> 3.16 µM,–,–,–,–,–
~1 µM,–,N#Cc1ccc(Nc2cnccc2SCc2ccccc2C(=O)O)c2ccccc12 [KPH2f],> 3.16 µM,–,> 10 µM,> 10 µM,–,> 3.16 µM,–,–,–,–,–
–,–,Nc1nc2ccc(OC(F)(F)F)cc2s1 [Riluzole],> 3.16 µM,> 10 µM,> 10 µM,–,> 3.16 µM,–,–,–,–,–,–
–,–,CC(C)[C@H]1CN[C@H](C(=O)O)[C@H]1CC(=O)O [Dihydrokainate],> 3.16 µM,> 10 µM,> 10 µM,> 10 µM,–,> 3.16 µM,–,–,–,–,–
–,–,O=S(=O)(O)c1cc(N=C=S)ccc1/C=C/c1ccc(N=C=S)cc1S(=O)(=O)O [DIDS],> 3.16 µM,> 10 µM,> 10 µM,> 10 µM,–,> 3.16 µM,–,–,–,–,–
–,–,N[C@H](C(=O)O)[C@H](OCc1cccc(NC(=O)c2ccc(C(F)(F)F)cc2)c1)C(=O)O [TFB-TBOA],> 3.16 µM,> 10 µM,> 10 µM,> 10 µM,> 3.16 µM,–,–,–,–,–,–
–,–,COc1ccc(C2C(C#N)=C(N)OC3=C2C(=O)CC(c2cccc4ccccc24)C3)cc1 (centres unmarked) [UCPH-101],> 3.16 µM,> 10 µM,> 10 µM,> 10 µM,> 3.16 µM,–,–,–,–,–,–
–,–,C=C(C)[C@H]1CN[C@H](C(=O)O)[C@H]1CC(=O)O [Kainic acid],–,–,–,–,–,–,> 3.16 µM,> 10 µM,> 10 µM,> 10 µM,> 3.16 µM
–,1 µM,N[C@@H](CC(=O)Nc1ccc(Oc2cc(F)c(F)cc2Br)cc1)C(=O)O [WAY-213613],> 3.16 µM,–,> 10 µM,> 10 µM,> 3.16 µM,–,–,–,–,–,–
–,–,CC1C(C#N)=C(N)OC2=C1C(=O)CC(c1cccc3ccccc13)C2 (centres unmarked) [UCPH-102],> 3.16 µM,> 10 µM,> 10 µM,> 10 µM,> 3.16 µM,–,–,–,–,–,–
–,–,CNCCCN1c2ccccc2CCc2ccccc21 [Desipramine],> 3.16 µM,–,> 10 µM,> 10 µM,–,> 3.16 µM,–,–,–,–,–
–,–,"Fc1ccc(C(OCCN2CCN(CCCc3ccccc3)CC2)c2ccc(F)cc2)cc1 [Vanoxerine (GBR12909), Vanoxerine]",> 3.16 µM,–,> 10 µM,> 10 µM,> 3.16 µM,–,–,–,–,–,–
–,–,Cc1c(NC(=O)c2cc(C(N)=O)nc3cc(F)ccc23)c(C(F)(F)F)nn1Cc1ccc(C#N)cc1 [BAY-876],> 3.16 µM,–,> 10 µM,–,–,> 3.16 µM,–,–,–,–,–
–,–,CN1C2CCC1CC(OC(c1ccccc1)c1ccccc1)C2 (centres unmarked) [Benzotropine],> 3.16 µM,–,> 10 µM,> 10 µM,–,> 3.16 µM,–,–,–,–,–
